Experimental data taken from publication PMC5799255, “Histone H5 is a potent Antimicrobial Agent and a template for novel Antimicrobial Peptides” (Scientific Reports, 2018).
Where two headings read alike, the source gives them in different places. Marks after values point to notes of the source that are not given here. Ends that are not written are not given here.

Legend:
S. aureus = tested on: S. aureus; design: method as in PMID 22723861, PMID 16978580; settings: cited from earlier work
E. coli = tested on: E. coli; design: method as in PMID 22723861, PMID 16978580; settings: cited from earlier work
E. faecalis = tested on: E. faecalis; design: method as in PMID 22723861, PMID 16978580; settings: cited from earlier work
P. aeruginosa = tested on: P. aeruginosa; design: method as in PMID 22723861, PMID 16978580; settings: cited from earlier work
P. aeruginosa biofilms = settings: cited from earlier work
Excerpt: (§1) L. monocytogenes and P. aeruginosa are major human pathogens that cause serious illnesses through foodborne and hospital-acquired infections, respectively. […] Moreover, an estimated 51,000 healthcare-associated infections leading to 440 deaths per year in the United States are caused by P. aeruginosa. Additionally, both pathogens have the ability to form biofilms, which enhances their persistence in unfavourable environ ...

[1] = tested on: Listeria monocytogenes (ATCC 19112); settings: preliminary peptide screen, peptide purities 50% to 81.9%, tested 1-64 µg/mL, broth microdilution, mean ± SD, n = 3
Description: (§2) Antimicrobial activity of histone H5 against a variety of Gram-positive and Gram-negative planktonic bacteria was evaluated using a broth microdilution assay.
(§3) The antimicrobial activity of these peptides against Gram-positive and Gram-negative planktonic bacteria was evaluated using broth microdilution assays.
(§4) The bacterial strains tested in this study were Gram-positive bacteria (Bacillus cereus (ATCC 11778), methicillin-sensitive Staphylococcus aureus (ATCC 6538), methicillin-resistant Staphylococcus aureus (ATCC 29247), Listeria monocytogenes (ATCC 19112), Enterococcus faecalis (clinical isolate) and vancomycin-resistant Enterococcus (ATCC 51299)) and Gram-negative bacteria Escherichia coli K12 (ATCC 29425), Escherichia coli (O157:H7), Pseudomonas aeruginosa (ATCC 15442) and Salmonella typhimurium (ATCC 1535)). Bacterial colonies from glycerol stocks were plated on LB agar plates (BHI agar plates for L. monocytogenes) and incubated overnight at 37 °C. Single colonies from these plates were grown in 3 mL of LB broth (BHI broth for L. monocytogenes) overnight at 37 °C and shaken at 250 rpm. […] The bacterial suspension was pelleted at 3,000 × g, 4 °C for 10 minutes and washed with PBS (twice), and then adjusted to 10^5–10^6 CFUs/mL in PBS.
(§5) Supplementary Information
(§6) Broth microdilution assay
(§7) The protocol for this step of the project was based on established methods22. Histone H5 or the peptides were dissolved in sterile water, pH 7.4, serially two-fold diluted and aliquoted in a 1:1 (v/v) ratio with bacteria. Kanamycin or ampicillin served as a positive control for inhibition, and sterile water (pH 7.4) as a negative control for inhibition. The tubes were then incubated for 3 hours at 37°C an d shaken at 200 rpm. Next, 100 µL of each tube and 100µL of LB broth (BHI broth for L. monocytogenes) was plated in wells of a 96-well microplate. The microplate was incubated in the EON microplate reader overnight at 206 oscillations/min and at 37°C. During this period, the EON microplate spectrophotometer and Gen5 data analysis software (BioTek, Winooski, VT, USA) were used to monitor the growth of bacteria by measuring the optical density at 600 nm every 30 minutes for 18 hours. The lowest protein concentration without visible bacterial growth was designated as the minimum inhibitory concentration (MIC). Bacteria (10 µL) from the wells at MIC, MIC x 2 and MIC x 3 concentrations of H5 were plated on LB agar (BHI agar for L. monocytogenes) and incubated at 37°C for 18 hours. The lowest concentration of histone H5 without a single colony was designated as the minimum bactericidal concentration (MBC).

[2] = tested on: Pseudomonas aeruginosa (ATCC 15442); settings: preliminary peptide screen, peptide purities 50% to 81.9%, tested 1-64 µg/mL, broth microdilution, mean ± SD, n = 3
Description: as §2, §3, §4, §5, §6, §7

[3] = tested on: L. monocytogenes biofilms; settings: 6.8 µg/mL, 2 and 4 hours of treatment, cited from earlier work
Excerpt: as §1

Human β-defensin-3: a human host defence antimicrobial peptide (GIINTLQKYYCRVRGGRCAVLSCLPKEEQIGKCSTRGRKCCRRKK; ends and bridges not checked; cysteine pairing not given here; UniProt P81534 23-67, looked up)
MIC (S. aureus): 12 µg/mL | MIC (E. coli): 6 µg/mL | MIC (E. faecalis): > 512 µg/mL | MIC (P. aeruginosa): 13 µg/mL

melittin: CAMP tested against P. aeruginosa biofilms in the literature
MBEC (P. aeruginosa biofilms): > 640 µg/mL

VLKQTKGVGASGSFRLAKSD [H5(81–100)]
MIC [1]: inactive | MIC ([1]; listed as H5 (81–100)): NI ^‡ (Non-inhibitory at the highest concentration tested (64 µg/mL)) | MIC [2]: non-inhibitory | MIC ([2]; listed as H5 (81–100)): NI ^‡ (Non-inhibitory at the highest concentration tested (64 µg/mL))

LSIRRLLAAGVLKQTKGVGA [H5(71–90)]
MIC [1]: >64^† µg/mL | MIC [2]: 26.7 ± 14.1 µg/mL

EMIAAAIRAEKSRGGSSRQS [H5(31–50)]
MIC [1]: inactive | MIC ([1]; listed as H5 (31–50)): NI ^‡ (Non-inhibitory at the highest concentration tested (64 µg/mL)) | MIC [2]: non-inhibitory | MIC ([2]; listed as H5 (31–50)): NI ^‡ (Non-inhibitory at the highest concentration tested (64 µg/mL))

EMIAAAIRAEKSRGGSSRQSIQKYIKSHYK [H5(31–60)]
MIC [1]: inactive | MIC ([1]; listed as H5 (31–60)): NI ^‡ (Non-inhibitory at the highest concentration tested (64 µg/mL)) | MIC [2]: non-inhibitory | MIC ([2]; listed as H5 (31–60)): NI ^‡ (Non-inhibitory at the highest concentration tested (64 µg/mL))

LL-37
MBEC (P. aeruginosa biofilms): 640 µg/mL | MBEC/MIC ratio (P. aeruginosa biofilms): 5–80

magainin II
MBEC (P. aeruginosa biofilms): > 640 µg/mL

paenibacterin
disruption of established biofilms (in words) ([3]; biofilms developed statically at 30 °C): effective | disruption of established biofilms (in words) ([3]; stronger biofilms developed at 37 °C): not effective

RVKASRRSASHPTYSEMIAAAIRAEKSRGG [H5(16–45)]
MIC [1]: inactive | MIC ([1]; listed as H5 (16–45)): NI ^‡ (Non-inhibitory at the highest concentration tested (64 µg/mL)) | MIC [2]: non-inhibitory | MIC ([2]; listed as H5 (16–45)): NI ^‡ (Non-inhibitory at the highest concentration tested (64 µg/mL))
